Values after ≈ are worked out from the molar mass of the structure shown. “Also recorded” adds a separate entry of the source.
Key:
[1] = test system: MDCK NBL-2 (ATCC CCL-34) cells; test: cells; settings: for IC50: Canis lupus familiaris, MDCK, 72 h, read-out: IC50 MDCK NBL-2 (ATCC CCL-34)
Excerpt: (§1) All seven compounds were subjected to a panel of bioactivity assays to assess their effects on staphylococcal pathogens and mammalian cells (Table 2). […] This fluorescent stain specifically binds to sialic acid and the N-acetylglucosaminyl residues of the biofilm. […] Growth inhibition in the microbial pathogens was quantified by monitoring the conversion of resazurin to the fluorescent resorufin product.
The mammalian antiproliferative assay was done according to Lacerna et al. (2019) and modified from the method of Mossman (1983). […] At 72 h post-incubation, the cells were treated with MTT and the absorbance at 570 nm was read. The IC50 was calculated using GraphPad Prism 5 based on a 4-point sigmoidal non-linear regression analysis of cell viability vs. log concentration of the inhibitor. The assay was done in two independent trials with four independent replicates.

[2] = test system: planktonic S. epidermidis RP62A (ATCC 35984); test: Planktonic cell viability, resazurin (from biofilm assay plate); format: cell-based, Staphylococcus epidermidis; settings: for MIC: Staphylococcus epidermidis, ATCC35984, planktonic cells, lowest concentration with >98% growth inhibition; for bioactivity against microbial pathogens or mammalian cells (in words): statement covers the whole panel of Table 2 (staphylococcal pathogens and MDCK cells)
Excerpt: as §1
(§2) The biofilm inhibition assay was done according to the method of Skogman et al. (2012). […] A single colony from the CRA plate was transferred in 50 mL trypticasein soy broth supplemented with glucose (TSBg) and grown overnight at 35 °C, 150 rpm. The turbidity of the culture was adjusted to match the 0.5 McFarland standard (1 × 10^8 cells/mL) and diluted 100-fold prior to inoculation in a 96-well plate. […] TSBg served as the negative control, and positive controls were chloramphenicol (Sigma-Aldrich) for planktonic cells and dispersin B (Kane Biotech) for biofilms. Dispersin B is a 40 kDa glycoside hydrolase which dissolves mature bacterial biofilms. The plates were incubated for 20 h at 37 °C without shaking to facilitate biofilm formation. At the end of the incubation period, the planktonic suspension was transferred to another 96-well plate to assess cell viability. A 20 µL-aliquot of 0.02% resazurin was added to each well and incubated for 30 min at 37 °C, 150 rpm. Fluorescence was measured using a 530 nm excitation filter and a 590 nm emission filter. To quantify the formed biofilm, 100 µL-aliquot of wheat germ agglutinin Alexa Fluor 488 (WGA488) probe (50 µg/mL) was added to each well of the original plate and incubated in the dark at 4 °C for 5 h. At the end of incubation, the plate was washed with sterile PBS (3×) and air-dried at room temperature to remove the unbound WGA488 probe. Bound stain to the biofilm was dissolved in 33% glacial acetic acid and quantified by fluorescence measurement at 485 nm/420 nm excitation filters, and 528 nm/520 nm emission filters. […] This was done in two independent trials with four independent replicates.

[3] = test system: S. aureus (ATCC 6538); test: Antimicrobial microdilution assay (resazurin); format: cell-based; settings: Staphylococcus aureus, ATCC6538; planktonic; >98% growth inhibition; 24 h
Procedure: as §1
(§3) After 24 h of incubation, 0.02% resazurin (20 µL) was added to each well, and the fluorescence was measured at 530 nm excitation and 590 nm emission. MIC is the lowest concentration at which there was no reduction of the rezasurin dye, equivalent to 98% inhibition of microbial growth. Assays were done in two independent trials with four independent replicates.

[4] = test system: Methicillin-resistant S. aureus (ATCC 43300); test: Antimicrobial microdilution assay (resazurin); format: cell-based; settings: Staphylococcus aureus; planktonic; >98% growth inhibition; 24 h; read-out: MIC Methicillin-Resistant S. aureus (ATCC 43,300)
Procedure: as §1, §3

[5] = test system: S. epidermidis RP62A (ATCC 35984) biofilm formation; test: Biofilm inhibition assay (WGA488 staining of formed biofilm); format: cell-based, Staphylococcus epidermidis; settings: for Selectivity Index (MICPlanktonic/MBICBiofilm): S. epidermidis RP62A, MIC planktonic / MBIC biofilm; for MBIC S. epidermidis RP62A (ATCC 35984): lowest concentration causing >98% inhibition of biofilm formation, two independent trials in quadruplicates
Excerpt: as §1, §2

Row | Structure (SMILES) | MIC [2] | MIC [3] | MIC [4] | IC50 [1] | inhibition of biofilm formation in S. epidermidis (in words) [5] | Selectivity Index (MICPlanktonic/MBICBiofilm) [5] | MBIC S. epidermidis RP62A (ATCC 35984) [5] | cytotoxicity / antiproliferative action in mammalian MDCK cells (in words) [1] | antimicrobial activity against planktonic S. epidermidis (in words) [2] | bioactivity against microbial pathogens or mammalian cells (in words) [2]
1 | CCCCCC1OC1C(O)CCCCCCCCCC(=O)O (stereo not shown) [Compound 1, 11-hydroxy-12,13-epoxy-octadecanoic acid] | 128 µg/mL (≈ 407 µM) | > 128 µg/mL | > 128 µg/mL | 61.7 µg/mL (≈ 196 µM) | inhibited biofilm formation | ~4 | 32 µg/mL | – | – | –
2 | CCCCC/C=C/C(=O)CCCCCCCC(=O)O [Compound 2, (E)-9-oxohexadec-10-enoic acid] | > 128 µg/mL | > 128 µg/mL | > 128 µg/mL | 33 µg/mL (≈ 123 µM) | inhibited biofilm formation | ~1 | – | – | – | –
3 | CCCCC[C@@H]1O[C@H]1CCCCCCCCCCC(=O)O [Compound 6, trans-12,13-epoxy-octadecanoic acid] | > 128 µg/mL | > 128 µg/mL | > 128 µg/mL | > 128 µg/mL | inhibited biofilm formation | >8 | 16 µg/mL | no antiproliferative action | – | –
4 | CCCCC/C=C\CCCCCCCCCCC(=O)O [Compound 7, 12(Z)-octadecenoic acid] | – | – | – | – | – | – | >128 µg/mL | – | – | –
5 | Cc1onc(-c2ccccc2)c1C(=O)N[C@@H]1C(=O)N2[C@@H]1SC(C)(C)[C@@H]2C(=O)O [oxacillin] | – | 0.5 µg/mL (≈ 1.25 µM) | 8 µg/mL (≈ 19.9 µM) | – | – | – | – | – | – | –

The next lines start with results.

Row | MIC [2] | MIC [3] | MIC [4] | Structure (SMILES) | IC50 [1] | inhibition of biofilm formation in S. epidermidis (in words) [5] | Selectivity Index (MICPlanktonic/MBICBiofilm) [5] | MBIC S. epidermidis RP62A (ATCC 35984) [5] | cytotoxicity / antiproliferative action in mammalian MDCK cells (in words) [1] | antimicrobial activity against planktonic S. epidermidis (in words) [2] | bioactivity against microbial pathogens or mammalian cells (in words) [2]
6 | 16 µg/mL (≈ 54 µM) | > 128 µg/mL | > 128 µg/mL | CCCCC/C=C/C(=O)CCCCCCCCCC(=O)O [Compound 3, (E)-11-oxooctadec-12-enoic acid] | 13.6 µg/mL (≈ 45.9 µM) | inhibited biofilm formation; also recorded: potent but non-selective activity | ~1 | 16 µg/mL | demonstrated cytotoxicity | showed antimicrobial activity | –
7 | > 128 µg/mL | > 128 µg/mL | > 128 µg/mL | CCCCCCCCCCCCCCCC(=O)O [Compound 4, palmitic acid] | > 128 µg/mL | – | ~1 | >128 µg/mL | cytotoxic activity | – | did not show any significant bioactivity
8 | > 128 µg/mL | > 128 µg/mL | > 128 µg/mL | CCCCCCCCCCCCCCCCCC(=O)O [Compound 5, stearic acid] | > 128 µg/mL | – | ~1 | >128 µg/mL | – | – | did not show any significant bioactivity
9 | 8 µg/mL (≈ 24.8 µM) | – | – | O=C(N[C@H](CO)[C@H](O)c1ccc([N+](=O)[O-])cc1)C(Cl)Cl [chloramphenicol] | – | – | – | – | – | – | –
